Data from article PMC10178848, “Modulating fast skeletal muscle contraction protects skeletal muscle in animal models of Duchenne muscular dystrophy” (The Journal of Clinical Investigation, 2023).

Test system: mdx mouse EDL muscle
Experiment: Phosphoprotein array analysis (Cell Signaling Phospho Antibody Array)
Description: mdx mouse EDL muscle was prepared for ex vivo analysis as described (n = 5). Muscles were incubated for 1 hour with DMSO or EDG-5506 (5 μM) and then flash frozen in liquid nitrogen. Tissue preparation and analysis were performed as recommended by the manufacturer (Cell Signaling Phospho Antibody Array, Full Moon Biosystems).

O=c1ccc(-c2cnc(OCC(F)(F)F)nc2)nn1Cc1cncc(F)c1 [EDG-5506]
Fold Change T/C: PPAR-gamma (Ab-112) (5 μM, 1 hour): 1.49
Fold Change T/C: PPAR-gamma (Phospho-Ser112) (5 μM, 1 hour): 1.26
Fold Change T/C: PTEN (Ab-380) (5 μM, 1 hour): 1.13
Fold Change T/C: Raf1 (Ab-43) (5 μM, 1 hour): 0.90
Fold Change T/C: Rb (Ab-807) (5 μM, 1 hour): 2.11
Fold Change T/C: Rb (Phospho-Ser807) (5 μM, 1 hour): 0.91
Fold Change T/C: RelB (Phospho-Ser552) (5 μM, 1 hour): 0.76
Fold Change T/C: SAPK/JNK (Phospho-Tyr185) (5 μM, 1 hour): 0.84
Fold Change T/C: SHP-2 (Phospho-Tyr542) (5 μM, 1 hour): 0.91
Fold Change T/C: SRF (Ab-99) (5 μM, 1 hour): 1.97
Fold Change T/C: STAT3 (Ab-705) (5 μM, 1 hour): 1.05
Fold Change T/C: STAT3 (Phospho-Tyr705) (5 μM, 1 hour): 0.92
Fold Change T/C: STAT4 (Phospho-Tyr693) (5 μM, 1 hour): 1.04
Fold Change T/C: STAT5A (Ab-780) (5 μM, 1 hour): 0.86
Fold Change T/C: STAT6 (Ab-645) (5 μM, 1 hour): 1.12
Fold Change T/C: STAT6 (Phospho-Thr645) (5 μM, 1 hour): 0.89
Fold Change T/C: SYK (Ab-525) (5 μM, 1 hour): 0.99
Fold Change T/C: SYK (Phospho-Tyr348) (5 μM, 1 hour): 0.91
Fold Change T/C: Shc (Ab-349) (5 μM, 1 hour): 0.62
Fold Change T/C: Smad1 (Ab-465) (5 μM, 1 hour): 0.82
Fold Change T/C: Smad1 (Phospho-Ser187) (5 μM, 1 hour): 1.60
Fold Change T/C: Smad2 (Ab-255) (5 μM, 1 hour): 2.57
Fold Change T/C: Smad2 (Phospho-Ser467) (5 μM, 1 hour): 1.00
Fold Change T/C: Smad2/3 (Phospho-Thr8) (5 μM, 1 hour): 1.25
Fold Change T/C: Smad3 (Ab-425) (5 μM, 1 hour): 0.52
Fold Change T/C: Smad3 (Phospho-Ser213) (5 μM, 1 hour): 1.26
Fold Change T/C: Src (Ab-418) (5 μM, 1 hour): 1.70
Fold Change T/C: Src (Phospho-Tyr418) (5 μM, 1 hour): 0.77
Fold Change T/C: TGFBR2 (Ab-250) (5 μM, 1 hour): 0.90
Fold Change T/C: Tau (Ab-235) (5 μM, 1 hour): 1.98
Fold Change T/C: Tau (Phospho-Ser396) (5 μM, 1 hour): 0.90
Fold Change T/C: Trk B (Ab-515) (5 μM, 1 hour): 1.53
Fold Change T/C: Tubulin-b (5 μM, 1 hour): 1.09
Fold Change T/C: VASP (Ab-157) (5 μM, 1 hour): 1.26
Fold Change T/C: VEGFR2 (Ab-1214) (5 μM, 1 hour): 1.07
Fold Change T/C: VEGFR2 (Phospho-Tyr1175) (5 μM, 1 hour): 0.84
Fold Change T/C: Zap-70 (Ab-319) (5 μM, 1 hour): 1.12
Fold Change T/C: Zap-70 (Phospho-Tyr319) (5 μM, 1 hour): 1.04
Fold Change T/C: c-Abl (Ab-412) (5 μM, 1 hour): 0.93
Fold Change T/C: c-Jun (Ab-243) (5 μM, 1 hour): 1.03
Fold Change T/C: c-Jun (Phospho-Ser73) (5 μM, 1 hour): 0.91
Fold Change T/C: eEF2K (Ab-366) (5 μM, 1 hour): 2.10
Fold Change T/C: eIF2A (Ab-51) (5 μM, 1 hour): 0.86
Fold Change T/C: eNOS (Ab-1179) (5 μM, 1 hour): 0.92
Fold Change T/C: p44/42 MAP Kinase (Phospho-Tyr204) (5 μM, 1 hour): 0.88
Fold Change T/C: p53 (Ab-315) (5 μM, 1 hour): 1.69
Fold Change T/C: p53 (Phospho-Ser15) (5 μM, 1 hour): 0.20
changes in implicated signaling pathways (Akt, IGF1, LTBP4/TGF-β) (5 μM, 1 hour): no consistent changes in implicated pathways
Average Signal of Replicate Spots: 4E-BP1 (Phospho-Thr45) (4000031744 (T)): 3952
Average Signal of Replicate Spots: 14-3-3 theta/tau (Phospho-Ser232) (4000031744 (T)): 1343
Average Signal of Replicate Spots: ACC1 (Phospho-Ser80) (4000031744 (T)): 1068
Average Signal of Replicate Spots: AMPKbeta1 (Phospho-Ser182) (4000031744 (T)): 1111
Average Signal of Replicate Spots: B-RAF (Phospho-Ser446) (4000031744 (T)): 1461
Average Signal of Replicate Spots: BAX (Phospho-Thr167) (4000031744 (T)): 923
Average Signal of Replicate Spots: BCL-XL (Phospho-Ser62) (4000031744 (T)): 3298
Average Signal of Replicate Spots: BLNK (Phospho-Tyr96) (4000031744 (T)): 811
Average Signal of Replicate Spots: CBL (Phospho-Tyr700) (4000031744 (T)): 1571
Average Signal of Replicate Spots: CDK1/CDC2 (Phospho-Tyr15) (4000031744 (T)): 1071
Average Signal of Replicate Spots: CREB (Phospho-Ser133) (4000031744 (T)): 971
Average Signal of Replicate Spots: CaMK2-beta/gamma/delta (Phospho-Thr287) (4000031744 (T)): 1442
Average Signal of Replicate Spots: CaMK2A (Phospho-Thr286) (4000031744 (T)): 1017
Average Signal of Replicate Spots: Caspase 8 (Phospho-Ser347) (4000031744 (T)): 1275
Average Signal of Replicate Spots: Caspase 9 (Phospho-Ser196) (4000031744 (T)): 3581
Average Signal of Replicate Spots: Catenin beta (Phospho-Thr41/Ser45) (4000031744 (T)): 1080
Average Signal of Replicate Spots: Chk2 (Phospho-Thr68) (4000031744 (T)): 787
Average Signal of Replicate Spots: Cyclin D1 (Phospho-Thr286) (4000031744 (T)): 2969
Average Signal of Replicate Spots: Cyclin E1 (Phospho-Thr77) (4000031744 (T)): 1889
Average Signal of Replicate Spots: DARPP-32 (Phospho-Thr34) (4000031744 (T)): 1112
Average Signal of Replicate Spots: EEF2 (Phospho-Thr56) (4000031744 (T)): 1593
Average Signal of Replicate Spots: FADD (Phospho-Ser194) (4000031744 (T)): 2520
Average Signal of Replicate Spots: FAK (Phospho-Ser910) (4000031744 (T)): 1946
Average Signal of Replicate Spots: FGFR1 (Phospho-Tyr654) (4000031744 (T)): 2920
Average Signal of Replicate Spots: GRK2 (Phospho-Ser29) (4000031744 (T)): 1817
Average Signal of Replicate Spots: GSK3 alpha/beta (Phospho-Tyr216/279) (4000031744 (T)): 1223
Average Signal of Replicate Spots: Gab2 (Phospho-Tyr643) (4000031744 (T)): 5234
Average Signal of Replicate Spots: HDAC1 (Phospho-Ser421) (4000031744 (T)): 1842
Average Signal of Replicate Spots: HDAC2 (Phospho-Ser394) (4000031744 (T)): 1737
Average Signal of Replicate Spots: HSP90B (Phospho-Ser226) (4000031744 (T)): 2514
Average Signal of Replicate Spots: IKK-beta (Phospho-Tyr188) (4000031744 (T)): 1332
Average Signal of Replicate Spots: IKK-beta (Phospho-Tyr199) (4000031744 (T)): 1363
Average Signal of Replicate Spots: IKK-gamma (Phospho-Ser31) (4000031744 (T)): 1172
Average Signal of Replicate Spots: IL-4R/CD124 (Phospho-Tyr497) (4000031744 (T)): 1616
Average Signal of Replicate Spots: IL-10R-alpha (Phospho-Tyr496) (4000031744 (T)): 1513
Average Signal of Replicate Spots: IkB-alpha (Phospho-Ser32/36) (4000031744 (T)): 10513
Average Signal of Replicate Spots: Integrin beta-3 (Phospho-Tyr773) (4000031744 (T)): 1072
Average Signal of Replicate Spots: JunB (Phospho-Ser259) (4000031744 (T)): 1085
Average Signal of Replicate Spots: LYN (Phospho-Tyr507) (4000031744 (T)): 1395
Average Signal of Replicate Spots: Lamin A/C (Phospho-Ser392) (4000031744 (T)): 969
Average Signal of Replicate Spots: MEK1 (Phospho-Ser217) (4000031744 (T)): 790
Average Signal of Replicate Spots: NFkB-p65 (Phospho-Ser311) (4000031744 (T)): 1154
Average Signal of Replicate Spots: NFkB-p100/p52 (Phospho-Ser865) (4000031744 (T)): 1360
Average Signal of Replicate Spots: P38 MAPK (Phospho-Thr180/Tyr182) (4000031744 (T)): 2391
Average Signal of Replicate Spots: P70S6K (Phospho-Ser424) (4000031744 (T)): 1169
Average Signal of Replicate Spots: P90RSK (Phospho-Thr359/Ser363) (4000031744 (T)): 1665
Average Signal of Replicate Spots: PDK1 (Phospho-Ser241) (4000031744 (T)): 2037
Average Signal of Replicate Spots: PLCG1 (Phospho-Tyr783) (4000031744 (T)): 8981
Average Signal of Replicate Spots: PLK1 (Phospho-Thr210) (4000031744 (T)): 732
Average Signal of Replicate Spots: PP2A-alpha (Phospho-Tyr307) (4000031744 (T)): 1166
Average Signal of Replicate Spots: PPAR-gamma (Phospho-Ser112) (4000031744 (T)): 1480
Average Signal of Replicate Spots: Rb (Phospho-Ser807) (4000031744 (T)): 1194
Average Signal of Replicate Spots: RelB (Phospho-Ser552) (4000031744 (T)): 3212
Average Signal of Replicate Spots: SAPK/JNK (Phospho-Tyr185) (4000031744 (T)): 1041
Average Signal of Replicate Spots: SHP-2 (Phospho-Tyr542) (4000031744 (T)): 1268
Average Signal of Replicate Spots: STAT3 (Phospho-Tyr705) (4000031744 (T)): 1079
Average Signal of Replicate Spots: STAT4 (Phospho-Tyr693) (4000031744 (T)): 52519
Average Signal of Replicate Spots: STAT6 (Phospho-Thr645) (4000031744 (T)): 1124
Average Signal of Replicate Spots: SYK (Phospho-Tyr348) (4000031744 (T)): 1249
Average Signal of Replicate Spots: Smad1 (Phospho-Ser187) (4000031744 (T)): 2057
Average Signal of Replicate Spots: Smad2 (Phospho-Ser467) (4000031744 (T)): 1265
Average Signal of Replicate Spots: Smad2/3 (Phospho-Thr8) (4000031744 (T)): 2539
Average Signal of Replicate Spots: Smad3 (Phospho-Ser213) (4000031744 (T)): 1879
Average Signal of Replicate Spots: Src (Phospho-Tyr418) (4000031744 (T)): 10867
Average Signal of Replicate Spots: Tau (Phospho-Ser396) (4000031744 (T)): 1057
Average Signal of Replicate Spots: VEGFR2 (Phospho-Tyr1175) (4000031744 (T)): 1051
Average Signal of Replicate Spots: Zap-70 (Phospho-Tyr319) (4000031744 (T)): 1504
Average Signal of Replicate Spots: c-Jun (Phospho-Ser73) (4000031744 (T)): 1180
Average Signal of Replicate Spots: p44/42 MAP Kinase (Phospho-Tyr204) (4000031744 (T)): 1035
Average Signal of Replicate Spots: p53 (Phospho-Ser15) (4000031744 (T)): 1903
Data Normalized to Median Signal: 4E-BP1 (Phospho-Thr45) (4000031744 (T)): 3.29
Data Normalized to Median Signal: 14-3-3 theta/tau (Phospho-Ser232) (4000031744 (T)): 1.12
Data Normalized to Median Signal: ACC1 (Phospho-Ser80) (4000031744 (T)): 0.89
Data Normalized to Median Signal: AMPKbeta1 (Phospho-Ser182) (4000031744 (T)): 0.93
Data Normalized to Median Signal: B-RAF (Phospho-Ser446) (4000031744 (T)): 1.22
Data Normalized to Median Signal: BCL-XL (Phospho-Ser62) (4000031744 (T)): 2.75
Data Normalized to Median Signal: BLNK (Phospho-Tyr96) (4000031744 (T)): 0.68
Data Normalized to Median Signal: CBL (Phospho-Tyr700) (4000031744 (T)): 1.31
